For one experiment, the target named is human JAK2 (Homo sapiens (Human), UniProt O60674). Conditions: read-out: JAK2 IC50.
The next experiment deals with human FAK (Homo sapiens (Human), UniProt Q05397). Conditions: read-out: FAK IC50.
Chain of human FAK (Q05397 whole entry): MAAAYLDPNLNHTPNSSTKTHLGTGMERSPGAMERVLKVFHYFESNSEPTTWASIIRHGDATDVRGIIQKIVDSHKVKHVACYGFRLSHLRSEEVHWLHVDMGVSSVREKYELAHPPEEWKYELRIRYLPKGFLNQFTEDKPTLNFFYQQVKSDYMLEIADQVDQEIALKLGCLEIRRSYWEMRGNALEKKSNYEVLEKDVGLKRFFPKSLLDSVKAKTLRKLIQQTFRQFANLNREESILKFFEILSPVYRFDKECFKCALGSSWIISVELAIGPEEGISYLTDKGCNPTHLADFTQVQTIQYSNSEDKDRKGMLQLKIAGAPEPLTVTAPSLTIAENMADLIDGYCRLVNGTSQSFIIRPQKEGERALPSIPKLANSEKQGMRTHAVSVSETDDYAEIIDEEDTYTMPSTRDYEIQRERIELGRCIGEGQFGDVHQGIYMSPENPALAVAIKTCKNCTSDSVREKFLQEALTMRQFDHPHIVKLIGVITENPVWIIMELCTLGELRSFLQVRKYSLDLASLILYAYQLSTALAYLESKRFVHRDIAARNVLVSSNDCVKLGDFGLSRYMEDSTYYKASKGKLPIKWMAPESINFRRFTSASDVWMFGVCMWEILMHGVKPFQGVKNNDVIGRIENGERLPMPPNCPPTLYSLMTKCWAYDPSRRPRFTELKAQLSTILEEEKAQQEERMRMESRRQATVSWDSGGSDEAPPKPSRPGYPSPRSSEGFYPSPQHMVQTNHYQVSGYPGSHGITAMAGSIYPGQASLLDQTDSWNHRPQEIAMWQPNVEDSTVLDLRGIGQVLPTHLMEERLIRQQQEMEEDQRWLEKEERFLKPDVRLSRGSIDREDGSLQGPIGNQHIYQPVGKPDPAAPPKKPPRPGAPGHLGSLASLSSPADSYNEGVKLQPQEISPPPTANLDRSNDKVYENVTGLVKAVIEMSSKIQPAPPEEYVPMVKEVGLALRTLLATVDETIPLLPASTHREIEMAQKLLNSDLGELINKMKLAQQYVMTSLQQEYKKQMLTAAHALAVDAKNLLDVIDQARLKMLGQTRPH

Chain of human JAK2 (O60674 815-1132): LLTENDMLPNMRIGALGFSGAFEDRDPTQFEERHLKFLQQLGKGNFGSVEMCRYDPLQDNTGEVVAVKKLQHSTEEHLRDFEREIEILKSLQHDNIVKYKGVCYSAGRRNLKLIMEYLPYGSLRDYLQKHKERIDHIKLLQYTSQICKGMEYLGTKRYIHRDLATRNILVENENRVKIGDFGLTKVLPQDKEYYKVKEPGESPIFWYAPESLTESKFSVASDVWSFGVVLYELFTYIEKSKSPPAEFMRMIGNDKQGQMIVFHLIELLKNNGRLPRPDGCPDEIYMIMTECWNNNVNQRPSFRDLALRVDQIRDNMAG

For the compound `CN1CCN(c2ccc(Nc3nc4c(O)cccn4n3)cc2)CC1` [Example 264, 2-[4-(4-Methyl-piperazin-1-yl)-phenylamino]-[1,2,4]triazolo[1,5-a]pyridin-8-ol], the IC50 on human JAK2 was determined as 567 nM. Same read-out and setting: the result for `COc1ccc(Nc2nc3c(N4CCN(C)CC4)cccn3n2)cc1` [Example 30, (4-Methoxy-phenyl)-[8-(4-methyl-piperazin-1-yl)-[1,2,4]triazolo[1,5-a]pyridin-2-yl]-amine] reads 441 nM. On the same count and under the same terms, the result for `COc1ccc(Nc2nc3c(C4=CCN(S(C)(=O)=O)CC4)cccn3n2)cc1` [Example 34, [8-(1-Methanesulfonyl-1,2,3,6-tetrahydro-pyridin-4-yl)-[1,2,4]triazolo[1,5-a]pyridin-2-yl]-(4-methoxy-phenyl)-amine] reads 1 nM. Still for that read-out and setting: with `CN1CCN(c2cccc(Nc3nc4c(-c5ccccc5S(C)(=O)=O)cccn4n3)c2)CC1` [Example 67, [8-(2-Methanesulfonyl-phenyl)-[1,2,4]triazolo[1,5-a]pyridin-2-yl]-[3-(4-methyl-piperazin-1-yl)-phenyl]-amine] the figure was 2500 nM; with `Cc1nn(C)c(C)c1Nc1nc2c(-c3ccc(S(C)(=O)=O)cc3)cccn2n1` [Example 210, [8-(4-Methanesulfonyl-phenyl)-[1,2,4]triazolo[1,5-a]pyridin-2-yl]-(1,3,5-trimethyl-1H-pyrazol-4-yl)-amine], 3000 nM; with `CC1(C)CCC(C)(C)c2cc(Nc3nc4c(-c5ccc(S(C)(=O)=O)cc5)cccn4n3)ccc21` [Example 28, [8-(4-Methanesulfonyl-phenyl)-[1,2,4]triazolo[1,5-a]pyridin-2-yl]-(5,5,8,8-tetramethyl-5,6,7,8-tetrahydro-naphthalen-2-yl)-amine], 27.7 nM. Regarding `CN1CCN(c2ccc(Nc3nc4ccc(-c5ccc(S(C)(=O)=O)cc5)cn4n3)cc2)CC1` [Example 37, [6-(4-Methanesulfonyl-phenyl)-[1,2,4]triazolo[1,5-a]pyridin-2-yl]-[4-(4-methyl-piperazin-1-yl)-phenyl]-amine], at human JAK2, the IC50 was determined as 2970 nM. As to `COc1ccccc1Nc1nc2c(-c3ccc(S(C)(=O)=O)cc3)cccn2n1` [Example 25, [8-(4-Methanesulfonyl-phenyl)-[1,2,4]triazolo[1,5-a]pyridin-2-yl]-(2-methoxy-phenyl)-amine], the IC50 at human JAK2 amounted to 1320 nM. The same measure, in the same setting: with `COc1ccc(Nc2nc3c(NC4CCN(S(C)(=O)=O)CC4)cccn3n2)cc1` [Example 41, N(8)-(1-Methanesulfonyl-piperidin-4-yl)-N(2)-(4-methoxy-phenyl)-[1,2,4]triazolo[1,5-a]pyridine-2,8-diamine] the figure was 375 nM; with `CC(C)(C)OC(=O)N1CCc2ccc(Nc3nc4c(-c5cccc6c5OC(F)(F)O6)cccn4n3)cc2CC1` [Example 243], 2110 nM. Still for that read-out and setting: the result for `CS(=O)(=O)c1ccc(-c2cccn3nc(Nc4ccc(OS(=O)(=O)C(F)(F)C(F)(F)C(F)(F)C(F)(F)F)cc4)nc23)cc1` [Example 45, 1,1,2,2,3,3,4,4,4-Nonafluoro-butane-1-sulfonic acid 4-[8-(4-methanesulfonyl-phenyl)-[1,2,4]triazolo[1,5-a]pyridin-2-ylamino]-phenyl ester] reads 106 nM; that for `CN1CCN(c2cccc(Nc3nc4c(Oc5ccc(S(C)(=O)=O)cc5)cccn4n3)c2)CC1` [Example 214, [8-(4-Methanesulfonyl-phenoxy)-[1,2,4]triazolo[1,5-a]pyridin-2-yl]-[3-(4-methyl-piperazin-1-yl)-phenyl]-amine], 1650 nM; that for `c1ccc(Nc2nc3ccccn3n2)cc1` [Example 1, Phenyl-[1,2,4]triazolo[1,5-a]pyridin-2-yl-amine], 1090 nM. On the same count and under the same terms, with `CS(=O)(=O)c1ccc(-c2cccn3nc(Nc4ccc(N5CCCCC5)cc4)nc23)cc1` [Example 18, [8-(4-Methanesulfonyl-phenyl)-[1,2,4]triazolo[1,5-a]pyridin-2-yl]-(4-piperidin-1-yl-phenyl)-amine] the figure was 0.6 nM; with `Cc1ccc(-n2cc(-c3cccn4nc(Nc5ccc(C6CCN(C(=O)OC(C)(C)C)CC6)cc5)nc34)cn2)cc1` [Example 287, 4-{4-[8-(1-p-Tolyl-1H-pyrazol-4-yl)-[1,2,4]triazolo[1,5-a]pyridine-2-ylamino]-phenyl}-piperidine-1-carboxylic acid tert-butyl ester], 1690 nM; with `COc1ccc(C(F)(F)F)cc1Nc1cccn2nc(Nc3cccc(N4CCN(C)CC4)c3)nc12` [Example 290, N(8)-(2-Methoxy-5-trifluoromethyl-phenyl)-N(2)-[3-(4-methyl-piperazin-1-yl)-phenyl]-[1,2,4]triazolo[1,5-a]pyridine-2,8-diamine], 3000 nM. Regarding `COc1cccc(Nc2nc3cccc(-c4cccc(S(C)(=O)=O)c4)n3n2)c1` [Example 79, [5-(3-Methanesulfonyl-phenyl)-[1,2,4]triazolo[1,5-a]pyridin-2-yl]-(3-methoxy-phenyl)-amine], on human JAK2, the IC50 was determined as 15.1 nM.

Turning to `CN1CCN(c2cncc(Nc3nc4cncc(-c5ccc(S(C)(=O)=O)cc5)n4n3)c2)CC1` [Example 108, [5-(4-Methanesulfonyl-phenyl)-[1,2,4]triazolo[1,5-a]pyrazin-2-yl]-[5-(4-methyl-piperazin-1-yl)-pyridin-3-yl]-amine], on human FAK, the IC50 was 3370 nM.

`CN1CCN(c2ccc(NC(=O)Nc3nc4cccc(-c5ccc(S(C)(=O)=O)cc5)n4n3)cc2)CC1` [Example 90, 1-[5-(4-Methanesulfonyl-phenyl)-[1,2,4]triazolo[1,5-a]pyridin-2-yl]-3-[4-(4-methyl-piperazin-1-yl)-phenyl]-urea]: at human JAK2, the IC50 worked out at 1530 nM.

With `COc1ccc(Nc2nc3c(N4CCN(S(C)(=O)=O)CC4)cccn3n2)cc1` [Example 33, [8-(4-Methanesulfonyl-piperazin-1-yl)-[1,2,4]triazolo[1,5-a]pyridin-2-yl]-(4-methoxy-phenyl)-amine], at human JAK2, the IC50 amounted to 60.4 nM. Regarding `CCn1cc(Nc2nc3c(-c4ccc(C(F)(F)F)cc4)cccn3n2)cn1` [Example 215, (1-Ethyl-1H-pyrazol-4-yl)-[8-(4-trifluoromethyl-phenyl)-[1,2,4]triazolo[1,5-a]pyridin-2-yl]-amine], at human FAK, the IC50 stood at 10000 nM. Turning to `CC(C)COc1ccc(C(F)(F)F)cc1-c1cccn2nc(Nc3ccc4c(c3)CCNCC4)nc12` [Example 379, [8-(2-Isobutoxy-5-trifluoromethyl-phenyl)-[1,2,4]triazolo[1,5-a]pyridin-2-yl]-(2,3,4,5-tetrahydro-1H-3-benzazepin-7-yl)-amine], on human FAK, the IC50 came to 3000 nM. Turning to `CC(C)(C)OC(=O)N1CCc2ccc(Nc3nc4c(-c5cc(C(F)(F)F)ccc5F)cccn4n3)cc2CC1` [Example 269, [8-(2-Fluoro-5-trifluoromethyl-phenyl)-[1,2,4]triazolo[1,5-a]pyridin-2-ylamino]-[2,3,4,5-tetrahydro-1H-benzo[d]azopin-7-yl]-3-carboxylic acid tert-butyl ester], the IC50 at human JAK2 is 586 nM. Same read-out and setting: with `CC(C)(C)OC(=O)N1CCN(c2ccc(Nc3nc4cccc(-c5ccccc5)n4n3)cc2)CC1` [Example 77, 4-[4-(5-Phenyl-[1,2,4]triazolo[1,5-a]pyridin-2-ylamino)-phenyl]-piperazine-1-carboxylic acid tert-butyl ester] the figure was 6.6 nM; with `c1cc(-c2ccncc2)c2nc(Nc3ccc(OCCN4CCCC4)cc3)nn2c1` [Example 15, (8-pyridin-4-yl-[1,2,4]triazolo[1,5-a]pyridin-2-yl)-[4-(2-pyrrolidin-1-yl-ethoxy)-phenyl]-amine], 3000 nM. Regarding `COc1ccc(C(F)(F)F)cc1-c1cccn2nc(Nc3cccc(C4CCN(CC(=O)N(C)C)CC4)c3)nc12` [Example 410], the IC50 at human FAK was 658 nM. With `COc1ccccc1Nc1nc2c(-c3cccc(C(F)(F)F)c3)cccn2n1` [Example 21, (2-Methoxy-phenyl)-[8-(3-trifluoromethyl-phenyl)-[1,2,4]triazolo[1,5-a]pyridin-2-yl]-amine], on human JAK2, the IC50 worked out at 3000 nM. Take `Cc1cccn2nc(Nc3ccc(S(C)(=O)=O)cc3)nc12` [Example 265, (4-Methanesulfonyl-phenyl)-(8-methyl-[1,2,4]triazolo[1,5-a]pyridin-2-yl)-amine]: the IC50 at human JAK2 was 2620 nM.

Take `COc1ccccc1Nc1nc2cccc(-c3cccc(S(C)(=O)=O)c3)n2n1` [Example 80, [5-(3-Methanesulfonyl-phenyl)-[1,2,4]triazolo[1,5-a]pyridin-2-yl]-(2-methoxy-phenyl)-amine]: the IC50 at human JAK2 was 1210 nM.

For `Fc1ccc(C(F)(F)F)cc1-c1cccn2nc(Nc3ccc4c(c3)CCNCC4)nc12` [Example 270, [8-(2-Fluoro-5-trifluoromethyl-phenyl)-[1,2,4]triazolo[1,5-a]pyridin-2-yl]-[2,3,4,5-tetrahydro-1H-benzo[d]azopin-7-yl]-amine], at human FAK, the IC50 came out at 6500 nM. Same read-out and setting: with `FC(F)COc1ccccc1-c1cccn2nc(Nc3ccc4c(c3)CCNCC4)nc12` [Example 367, {8-[2-(2,2-Difluoro-ethoxy)-phenyl]-[1,2,4]triazolo[1,5-a]pyridin-2-yl}-(2,3,4,5-tetrahydro-1H-3-benzazepin-7-yl)-amine] the figure was 1910 nM. In the case of `COc1cnc(-c2cccn3nc(Nc4ccc(C5CCN(C(=O)OC(C)(C)C)CC5)cc4)nc23)cn1` [Example 284, 4-{4-[8-(5-Methoxy-pyrazin-2-yl)-[1,2,4]triazolo[1,5-a]pyridine-2-ylamino]-phenyl}-piperidine-1-carboxylic acid tert-butyl ester], the IC50 on human JAK2 was 1490 nM. As for `CS(=O)(=O)c1cccc(-c2cccc3nc(Nc4ccc(CN5CCOCC5)cc4)nn23)c1` [Example 87, [5-(3-Methanesulfonyl-phenyl)-[1,2,4]triazolo[1,5-a]pyridin-2-yl]-(4-morpholin-4-ylmethyl-phenyl)-amine], the IC50 at human FAK turned out to be 341 nM. On to `CN1CCN(c2cccc(Nc3nc4c(Nc5ccccc5S(C)(=O)=O)cccn4n3)c2)CC1` [Example 68, N(8)-(2-Methanesulfonyl-phenyl)-N(2)-[3-(4-methyl-piperazin-1-yl)-phenyl]-[1,2,4]triazolo[1,5-a]pyridine-2,8-diamine], for which the IC50 at human JAK2 stood at 29 nM.

One may read the IC50 as the concentration at which inhibition is half-maximal.
